Source: patent US6518262B1, “22R-hydroxycholesta-8, 14-diene derivatives for the inhibition of meiosis” (Akzo Nobel N.V., priority 1999, dated 2003)

How the values were obtained:
denuded oocytes (DO) = test: Oocyte assay, agonistic testing, denuded oocytes (DO assay); format: cell-based, mice (B6D2-F1, strain C57BL×DBA); conditions: hypoxanthine medium, 22 hours culture, control value in brackets
Excerpt: (§1) Oocytes arrested in meiosis contain diffused chromosomes which are surrounded by an intact nuclear envelope known as the germinal vesicle (GV). Upon reinitiation of meiosis by the midcycle gonadotropin surge, the chromosomes recondense and the GV breaks down (GVBD). In vivo, the oocyte is exposed to hypoxanthine (HX), which maintains the oocyte arrested in the meiotic prophase. This meiotic arrest can be mimicked in vitro by addition of hypoxanthine to the culture medium. The agonistic activity of meiosis activating substances is measured as the ability to overcome the hypoxanthine maintained meiotic arrest in denuded oocytes (DO) or cumulus enclosed oocytes (CEO), i.e. as the ability to induce meiotic resumption in vitro.
(§2) Ovaries are obtained from immature female mice (B6D2-F1, strain C57BL×DBA). At the age of 19, 20 or 21 days the mice are injected subcutaneously with a single dose of 20 IU follicle stimulating hormone (Humegon, Organon, The Netherlands) in saline.
Forty-eight hours after follicle stimulating hormone injection mice are killed by cervical dislocation. The ovaries are removed, freed of extraneous tissue and placed in a multidish containing 0.5 ml preparation medium at 37° C. L-15 Leibovitz medium (Gibco, pH 7.3±0.1) supplemented with bovine serum albumin (3 mg·ml^−1), L-glutamine (0.23 mM), sodium pyruvate (2 mM) and hypoxanthine (4 mM) is used as preparation medium. The antral follicles of the ovaries are punctured under a dissecting microscope using two 27-gauge needles attached to two 1 ml syringes. Cumulus enclosed oocytes (CEO) of uniform size are selected with a mouth-controlled pipette and rinsed in 0.5 ml fresh preparation medium. About 20 CEO are obtained from one ovary.
Oocytes freed from cumulus cells, i.e. denuded oocytes (DO), are obtained by gently flushing CEO through a fine-bore mouth-controlled pipette. DO were collected in fresh MEM alpha medium, containing bovine serum albumin (3 mg·ml^−1), L-glutamine (0.23 mM), sodium pyruvate (2 mM) and hypoxanthine (4 mM), and washed twice before transfer to the test medium.
(§3) The oocyte assay is performed in 3 blocks, each block represents the ovaries of one mouse (randomized block design). […] At t=0 the number of oocytes with intact germinal vesicles (GV) or germinal vesicle break-down (GVBD) is counted under an inverted microscope with differential interference contrast equipment. […] At the end of the culture period the number of oocytes with GV or GVBD per group is counted. For statistical analysis the percentage germinal vesicle breakdown is calculated for each group in one block. These percentages are subjected to arcsin transformation, and differences between control and test compounds are analyzed by an ANOVA test for a randomized block design. […]

[1] = test system: cumulus enclosed oocytes (CEO); test: Oocyte assay, agonistic testing, cumulus enclosed oocytes (CEO assay); format: cell-based, mice (B6D2-F1, strain C57BL×DBA); conditions: hypoxanthine medium, 22 hours culture, control value in brackets
Excerpt: as §1, §2
Forty-eight hours after follicle stimulating hormone injection mice are killed by cervical dislocation. The ovaries are removed, freed of extraneous tissue and placed in a multidish containing 0.5 ml preparation medium at 37° C. L-15 Leibovitz medium (Gibco, pH 7.3±0.1) supplemented with bovine serum albumin (3 mg·ml^−1), L-glutamine (0.23 mM), sodium pyruvate (2 mM) and hypoxanthine (4 mM) is used as preparation medium. […]
as §3

[2] = test system: cultured cumulus enclosed and naked mouse oocytes; conditions: cited from earlier work

Structure (SMILES) | % GVBD DO assay exp. (denuded oocytes (DO); compound 5 μM) | % GVBD CEO assay exp. ([1]; compound 5 μM) | activation of the resumption of meiosis [2] | % GVBD DO assay exp. (denuded oocytes (DO); compound 10 μM) | % GVBD CEO assay exp. ([1]; compound 10 μM)
CC(C)=CC[C@H](O)[C@@H](C)[C@H]1CC=C2C3=C(CC[C@@]21C)[C@@]1(C)CC[C@H](O)C(C)(C)[C@@H]1CC3 [22S-hydroxy-FF-Mas, (3β,5α,20S,22S)-4,4-dimethylcholesta-8,14,24-triene-3,22-diol] | 97(2) % | 73(2) % | – | – | –
CC(C)=CCC[C@@H](C)[C@H]1CC[C@H]2C3=C(CC[C@]12C)[C@@]1(C)CC[C@H](O)C(C)(C)[C@@H]1CC3 [(3β,5α,20R)-4,4-dimethylcholesta-8,24-dien-3-ol] | – | – | able to activate the resumption of meiosis | – | –
CC(C)=CCC[C@@H](C)[C@H]1CC=C2C3=C(CC[C@@]21C)[C@@]1(C)CC[C@H](O)C(C)(C)[C@@H]1CC3 [FF-Mas, (3β,5α,20R)-4,4-dimethylcholesta-8,14,24-trien-3-ol] | – | – | able to activate the resumption of meiosis | 84(7) % | 0(0) %
